Among the data in US12030877B2, “Prostaglandin E synthase inhibitors and methods for utilizing the same” (University of Kentucky Research Foundation, priority 2016, dated 2024) are IC50 and inhibition values, retold here.

Molecules are shown by their SMILES.

In general, IC50 refers to the concentration that gives 50% inhibition. The inhibition is the percentage by which the read-out fell short of the control.

The target in one test is T1, mPGES-1 (Homo sapiens, UniProt O14684).
T1 sequence (O14684 1-152): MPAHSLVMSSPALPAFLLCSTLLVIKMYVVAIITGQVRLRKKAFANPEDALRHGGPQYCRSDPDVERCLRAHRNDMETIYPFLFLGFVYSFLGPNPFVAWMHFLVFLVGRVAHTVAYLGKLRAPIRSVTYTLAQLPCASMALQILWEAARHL
Description: mPGES-1 enzyme activity assay (PGE2 enzyme immunoassay), human enzyme. Format: biochemical. Also on record: made in house; host or cells: FreeStyle 293-F cells, crude microsomal preparation. To be noted: recombinant microsomal enzyme; means ± SD, triplicate; read-out: IC50 against mPGES-1, Human enzyme. Here is the method:
(§1) Studies were conducted to characterize the inhibitory activity against recombinant mPGES-1 of the compounds synthesized in accordance with Examples 1-4, and disclosed herein.
(§2) Briefly, FreeStyle 293-F cells were cultured following manufacturer's manual in FreeStyle 293 expression medium on orbit rotate shaker in 8% CO2 incubator at 37° C. Cells were transfected with 1.5 μg/mL of mPGES-1/pcDNA3 construct using FreeStyle Max reagent at a cell density of 1×10^6 for 2 days. Transfected cells were collected, washed, and sonicated in TSES buffer (15 mM Tris-HCl, pH 8.0 plus 0.25 M sucrose, 0.1 mM EDTA and 1 mM DTT) on ice. The broken cells were first centrifuged at 12,500×g for 10 min. The supernatant was further centrifuged at 105,000×g for 1 hr at 4° C. The pellet was washed and homogenized in PBS buffer. The crude microsomal mPGES-1 preparation was aliquoted and stored at −80° C. The crude protein concentration was 8 mg/mL.
(§3) The enzyme activity assays were performed on ice in 1.5 ml microfuge tubes by using the expressed mPGES-1. The reaction mixture contained: 0.2 M Na2HPO4/NaH2PO4, pH 7.2, 10 μL; 0.1 M GSH, 2.5 μL; diluted microsomal enzyme (80 μg/mL), 1 μL; PGH2 (0.31 mM in DMF), 5 μL; 1 μL inhibitor; and H2O in a final reaction volume of 100 μL. PGH2 was stored in dry ice and used to initiate the reaction.
(§4) Compounds were incubated with the enzyme for 15 min at room temperature before the addition of cold PGH2 (1 μM final) to initiate the enzyme reaction. After 30 s, 10 μL of SnCl2 (40 mg/mL) in ethanol was added to stop the reaction. The nonenzymatic conversion of PGH2 to PGE2 was performed in the same buffer devoid of enzyme. The reaction mixture was placed on ice until PGE2 production was determined by the PGE2 enzyme immunoassay as described earlier. IC50 values of the inhibitors were calculated by using the GraphPad Prism 4.0 program. The results are set forth in the tables provided in Examples 7-10.
As for `CCCCCCCCCCOc1ccc(/C=C(\C#N)C(=O)O)cc1OC` [Compound V-27], the IC50 was 51 ± 10 nM.
Take `O=C(O)CN1C(=O)/C(=C2\SC(=S)NC2=O)c2ccccc21` [II-30]: the IC50 was found to be 211 ± 67 nM.
For the molecule `O=C(O)CN1C(=O)S/C(=C2\C(=O)N(Cc3ccc(Cl)cc3)c3ccccc32)C1=O` [II-02], the IC50 was determined as 614 ± 63 nM.
On to `O=C(O)CN1C(=O)S/C(=C2\C(=O)Nc3ccc(-c4ccccc4)cc32)C1=O` [II-23], for which the IC50 stood at 8020 ± 1050 nM.
Take `CCCCCCCOc1ccc(C=C(C#N)C#N)cc1` [Compound V-10]: the half-inhibitory concentration (IC50) was determined as 136 ± 13 nM.
Take `O=C(O)CN1C(=O)S/C(=C2\C(=O)N(CCc3ccccc3)c3ccccc32)C1=O` [II-03]: the IC50 is 348 ± 44 nM.
As to `CCCCCCOc1ccc(-c2nn(-c3ccc(Cl)cc3)cc2C=C2C(=O)NC(=O)NC2=O)cc1` [VI-04], the half-inhibitory concentration (IC50) was 285 ± 65 nM.
With `CCOc1ccc(-c2nn(-c3ccc(Cl)cc3)cc2C=C2C(=O)NC(=S)NC2=O)cc1` [VI-10], the IC50 was found to be 95 ± 16 nM.
As for `O=C(CCCCCN1C(=O)C=CC1=O)Nc1ccc2c(c1)Cc1ccccc1-2` [III-02], the IC50 worked out at 613 ± 103 nM.
For `CCCCCCCCOc1ccc(-c2nn(-c3ccc(Cl)cc3)cc2/C=C(/C#N)C(=O)O)cc1` [VII-17], the half-maximal inhibitory concentration (IC50) is 90 ± 15 nM.
For `O=C(O)CN1C(=O)S/C(=C2\C(=O)N(CC3CCCCC3)c3ccc(-c4ccc(-c5ccccc5)cc4)cc32)C1=O` [II-19], the half-maximal inhibitory concentration (IC50) was 154 ± 20 nM.
For the molecule `O=C(O)CN1C(=O)S/C(=C2\C(=O)N(Cc3ccccc3)c3ccccc32)C1=O` [II-01], the IC50 turned out to be 817 ± 79 nM.
For the molecule `O=C(CCCN1C(=O)C=CC1=O)Nc1ccc2c(c1)Cc1ccccc1-2` [III-01], the IC50 was 1920 ± 300 nM.
Regarding `CCCCCCCCCCOc1ccc(-c2nn(-c3ccc(Cl)cc3)cc2/C=C(/C#N)C(=O)O)cc1` [VII-19], the 50% inhibitory concentration (IC50) was determined as 97 ± 15 nM.
The same measure, in the same setting: in the case of `O=C(O)CN1C(=O)S/C(=C2\C(=O)N(CCC3CCCCC3)c3ccc(-c4ccccc4)cc32)C1=O` [II-24] it was 32 ± 6 nM.
In the case of `CCCCCCCCN1C(=O)/C(=C2\SC(=O)N(CC(=O)O)C2=O)c2ccccc21` [II-15], the concentration for half-maximal inhibition (IC50) was 314 ± 44 nM.
Consider `O=C(O)CN1C(=O)S/C(=C2\C(=O)N(CC3CCCCC3)c3ccc(-c4ccc5ccccc5c4)cc32)C1=O` [II-20], for which the IC50 came to 531 ± 90 nM.
As for `CCCCCCCCCCOc1ccc(-c2nn(-c3ccccc3)cc2/C=C(/C#N)C(=O)O)cc1` [VII-18], the 50% inhibitory concentration (IC50) was 197 ± 32 nM.
In the case of `CCCCCCCCCCN1C(=O)/C(=C2\SC(=O)N(CC(=O)O)C2=O)c2ccccc21` [II-17], the IC50 was determined as 217 ± 30 nM.
On to `CCCCOc1ccc(-c2nn(-c3ccc(Cl)cc3)cc2/C=C(/C#N)C(=O)O)cc1` [VII-14], for which the IC50 was 190 ± 68 nM.
In the case of `O=C(O)CN1C(=O)S/C(=C2\C(=O)N(CCCCc3ccccc3)c3ccccc32)C1=O` [II-05], the IC50 came out at 963 ± 87 nM.
As to `CCCCCCCCOc1ccc(-c2nn(-c3ccc(Cl)cc3)cc2C=C2C(=O)NC(=S)NC2=O)cc1` [VI-15], the IC50 came out at 92 ± 19 nM.

Another test deals with T2, mPGES-1 Mouse enzyme (Mus musculus, UniProt Q9JM51).
T2 construct: made in house; host or cells: FreeStyle 293-F cells, crude microsomal preparation
T2 sequence (Q9JM51 1-153): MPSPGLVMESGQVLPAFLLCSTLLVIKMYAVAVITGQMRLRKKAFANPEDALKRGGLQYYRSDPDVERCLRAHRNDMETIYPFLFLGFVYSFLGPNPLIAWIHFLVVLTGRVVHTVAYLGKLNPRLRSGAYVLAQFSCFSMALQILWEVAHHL
Briefly: mPGES-1 enzyme activity assay (PGE2 enzyme immunoassay), mouse enzyme. In kind it is biochemical. The note with it: IC50 against mPGES-1, Mouse enzyme, recombinant microsomal enzyme; means ± SD, triplicate. Here is the method: as §1, §2, §3, §4
As to `CCCCCCCCOc1ccc(-c2nn(-c3ccc(Cl)cc3)cc2C=C2C(=O)NC(=S)NC2=O)cc1` [VI-15], the 50% inhibitory concentration (IC50) was determined as 316 ± 30 nM.

Staying with this test, now noted: compound at a concentration of 10 μM; read-out: % inhibition of the compound against mPGES-1, Mouse enzyme.
On to `O=C(O)CN1C(=O)/C(=C2\SC(=S)NC2=O)c2ccccc21` [II-30], for which the inhibition at 10 µM was determined as 6.1%.
Regarding `O=C(O)CN1C(=O)S/C(=C2\C(=O)N(Cc3ccc(Cl)cc3)c3ccccc32)C1=O` [II-02], the inhibition at 10 µM worked out at 45%.
For `O=C(O)CN1C(=O)S/C(=C2\C(=O)Nc3ccc(-c4ccccc4)cc32)C1=O` [II-23], the inhibition at 10 µM is 63%.
Still for that read-out and setting: in the case of `O=C(O)CN1C(=O)S/C(=C2\C(=O)N(CCc3ccccc3)c3ccccc32)C1=O` [II-03] it was 62%; in that of `CCCCCCOc1ccc(-c2nn(-c3ccc(Cl)cc3)cc2C=C2C(=O)NC(=O)NC2=O)cc1` [VI-04], 46%.
In the case of `CCOc1ccc(-c2nn(-c3ccc(Cl)cc3)cc2C=C2C(=O)NC(=S)NC2=O)cc1` [VI-10], the inhibition at 10 µM was determined as 46%.
For `CCCCCCCCOc1ccc(-c2nn(-c3ccc(Cl)cc3)cc2/C=C(/C#N)C(=O)O)cc1` [VII-17], the inhibition at 10 µM amounted to 29%.
For the molecule `O=C(O)CN1C(=O)S/C(=C2\C(=O)N(Cc3ccccc3)c3ccccc32)C1=O` [II-01], the inhibition at 10 µM turned out to be 10%.
For `O=C(CCCN1C(=O)C=CC1=O)Nc1ccc2c(c1)Cc1ccccc1-2` [III-01], the inhibition at 10 µM was found to be 48%.
Still for that read-out and setting: as for `CCCCCCCCCCOc1ccc(-c2nn(-c3ccc(Cl)cc3)cc2/C=C(/C#N)C(=O)O)cc1` [VII-19], the figure is 4.6%.
For the molecule `CCCCCCCCCCOc1ccc(-c2nn(-c3ccccc3)cc2/C=C(/C#N)C(=O)O)cc1` [VII-18], the inhibition at 10 µM was 4.3%.
In the case of `CCCCOc1ccc(-c2nn(-c3ccc(Cl)cc3)cc2/C=C(/C#N)C(=O)O)cc1` [VII-14], the inhibition at 10 µM came to 30%.
On to `O=C(O)CN1C(=O)S/C(=C2\C(=O)N(CCCCc3ccccc3)c3ccccc32)C1=O` [II-05], for which the inhibition at 10 µM came to 61%.

Still in this test, the particulars now being: recombinant microsomal enzyme; means ± SD, triplicate; read-out: IC50 against mPGES-1, Mouse enzyme.
`CCCCCCCCCCOc1ccc(/C=C(\C#N)C(=O)O)cc1OC` [Compound V-27]: the IC50 turned out to be 390 ± 84 nM.
Take `CCCCCCCOc1ccc(C=C(C#N)C#N)cc1` [Compound V-10]: the IC50 was found to be 1390 ± 255 nM.
On the same count and under the same terms, in the case of `O=C(CCCCCN1C(=O)C=CC1=O)Nc1ccc2c(c1)Cc1ccccc1-2` [III-02] it was 2880 ± 496 nM; in that of `O=C(O)CN1C(=O)S/C(=C2\C(=O)N(CC3CCCCC3)c3ccc(-c4ccc(-c5ccccc5)cc4)cc32)C1=O` [II-19], 1020 ± 162 nM.
On to `O=C(O)CN1C(=O)S/C(=C2\C(=O)N(CCC3CCCCC3)c3ccc(-c4ccccc4)cc32)C1=O` [II-24], for which the IC50 is 777 ± 364 nM.
For the molecule `CCCCCCCCN1C(=O)/C(=C2\SC(=O)N(CC(=O)O)C2=O)c2ccccc21` [II-15], the IC50 amounted to 2680 ± 302 nM.
In the case of `O=C(O)CN1C(=O)S/C(=C2\C(=O)N(CC3CCCCC3)c3ccc(-c4ccc5ccccc5c4)cc32)C1=O` [II-20], the concentration for half-maximal inhibition (IC50) came out at 244 ± 31 nM.
On to `CCCCCCCCCCN1C(=O)/C(=C2\SC(=O)N(CC(=O)O)C2=O)c2ccccc21` [II-17], for which the IC50 was determined as 935 ± 135 nM.
